Experimental data taken from patent US12466829B2, “Spirocyclic piperidine melanocortin subtype-2 receptor (MC2R) antagonists and uses thereof” (Crinetics Pharmaceuticals, Inc., priority 2019, dated 2025).

Target: T1, hMC2 receptor (Homo sapiens, UniProt Q01718)
T1 construct: host or cells: CRE-bla-CHO-K1 cells
Assay: hMC2 membrane binding assay ([125I]ACTH (1-39) Tyr23, SPA)
Details: crude membranes of CRE-bla-CHO-K1 cells expressing hMC2 receptor and hMRAP; 0.2 nM [125I]ACTH (1-39) Tyr23; 1.5 hours at room temperature; read-out: MC2R binding potency
Procedure: Crude membrane fractions are prepared from CRE-bla-CHO-K1 cells stably expressing hMC2 receptor and hMRAP accessory protein (Thermo Fisher). The cells are grown to 85-100% confluence on standard tissue culture dishes in GlutaMax DMEM growth media (Gibco) with following additives: 10% dialyzed FBS (Gemini), 0.1 mM NEAA (Gibco), 25 mM HEPES (Gibco), 5 μg/mL blasticidin (Goldbio), 100 μg/mL zeocin (Invitrogen), 600 μg/mL hygromycin (Goldbio). To prepare membranes, cells are scraped and collected in 1× Dulbecco's phosphate buffered saline (Corning) and then pelleted at 1000 RPM's. The cell pellet is reconstituted in membrane preparation buffer (20 mM HEPES, 6 mM MgCl2 and 1 mM EGTA, protease inhibitor tablets (Pierce) adjusted to pH 7.4), homogenized using a dounce homogenizer, and the resulting membrane fraction is pelleted by centrifugation at 12,000 RPM's. The membrane pellet is resuspended in membrane preparation buffer, snap freezed and stored at −80° C. for later use.
The hMC2 membrane binding assay utilizes the following components: radiolabel [^125I]ACTH (1-39) Tyr23 (PerkinElmer), wheatgerm agglutinin coated PVT SPA beads (PerkinElmer), crude hMC2R membranes, and compounds. Briefly hMC2R membranes are incubated with SPA beads in binding assay buffer (50 mM HEPES, 5 mM MgCl2, 1 mM CaCl2), 0.2% BSA, protease inhibitor tablets (Pierce) adjusted to pH7.4) prior to assay initiation. […] Assay plates are read using a Top Count NXT and Ki values for compounds are determined using a GraphPad Prism 6 non-linear regression analysis.

T1 sequence (Q01718 whole entry): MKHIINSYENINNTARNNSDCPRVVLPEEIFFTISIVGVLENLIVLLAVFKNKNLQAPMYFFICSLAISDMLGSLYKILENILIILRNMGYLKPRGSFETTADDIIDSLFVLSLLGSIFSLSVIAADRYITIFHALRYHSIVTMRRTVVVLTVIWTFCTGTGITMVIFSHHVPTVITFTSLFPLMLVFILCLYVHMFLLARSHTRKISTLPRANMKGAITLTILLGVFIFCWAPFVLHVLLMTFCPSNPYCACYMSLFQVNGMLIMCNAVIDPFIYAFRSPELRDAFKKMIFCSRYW
T1 sequence (Q8TCY5 whole entry partner): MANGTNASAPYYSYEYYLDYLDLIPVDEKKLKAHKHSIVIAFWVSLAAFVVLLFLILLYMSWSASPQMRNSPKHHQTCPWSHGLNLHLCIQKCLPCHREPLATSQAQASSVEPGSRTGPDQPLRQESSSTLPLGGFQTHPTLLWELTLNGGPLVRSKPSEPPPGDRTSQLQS

Ki [nM] | Compound
< 10 | CCOc1ncccc1-c1ccc2c(n1)N(C(=O)CCN)CC21CCN(c2ccc(C(F)(F)F)cc2C#N)CC1 [1-28, 2-[1′-(3-aminopropanoyl)-6′-(2-ethoxypyridin-3-yl)-1′,2′-dihydrospiro[piperidine-4,3′-pyrrolo[2,3-b]pyridin]-1-yl]-5-(trifluoromethyl)benzonitrile]
< 10 | CCOc1ncccc1-c1ccc2c(n1)N(CCN)CC21CCN(c2ccc(C(F)(F)F)cc2C#N)CC1 [1-29, 2-[1′-(2-aminoethyl)-6′-(2-ethoxypyridin-3-yl)-1′,2′-dihydrospiro[piperidine-4,3′-pyrrolo[2,3-b]pyridin]-1-yl]-5-(trifluoromethyl)benzonitrile]
10 to 100 | CCOc1ncccc1-c1ccc2c(c1)N(C(=O)NC[C@H](C)N)CC21CCN(c2ccc(C(F)(F)F)cc2C#N)CC1 [1-31, N-[(2S)-2-aminopropyl]-1′-[2-cyano-4-(trifluoromethyl)phenyl]-6-(2-ethoxypyridin-3-yl)-1,2-dihydrospiro[indole-3,4′-piperidine]-1-carboxamide]
< 10 | CCOc1ncccc1-c1ccc2c(n1)N(C[C@@H](C)N)CC21CCN(c2ccc(C(F)(F)F)cc2C#N)CC1 [1-46, 2-{1′-[(2R)-2-aminopropyl]-6′-(2-ethoxypyridin-3-yl)-1′,2′-dihydrospiro[piperidine-4,3′-pyrrolo[2,3-b]pyridin]-1-yl}-5-(trifluoromethyl)benzonitrile]
10 to 100 | CCOc1ncccc1-c1ccc2c(n1)N(C(=O)[C@@H](C)N)CC21CCN(c2ccc(C(F)(F)F)cc2C#N)CC1 [1-47, 2-{1′-[(2R)-2-aminopropanoyl]-6′-(2-ethoxypyridin-3-yl)-1′,2′-dihydrospiro[piperidine-4,3′-pyrrolo[2,3-b]pyridin]-1-yl}-5-(trifluoromethyl)benzonitrile]
< 10 | CCOc1ncccc1-c1ccc2c(n1)N(C(=O)[C@H](C)N)CC21CCN(c2ccc(C(F)(F)F)cc2C#N)CC1 [1-48, 2-{1′-[(2S)-2-aminopropanoyl]-6′-(2-ethoxypyridin-3-yl)-1′,2′-dihydrospiro[piperidine-4,3′-pyrrolo[2,3-b]pyridin]-1-yl}-5-(trifluoromethyl)benzonitrile]
< 10 | CCOc1ncccc1-c1ccc2c(n1)N(C(=O)[C@@H]1CCNC1)CC21CCN(c2ccc(C(F)(F)F)cc2C#N)CC1 [1-49, 2-[6′-(2-ethoxypyridin-3-yl)-1′-[(3R)-pyrrolidine-3-carbonyl]-1′,2′-dihydrospiro[piperidine-4,3′-pyrrolo[2,3-b]pyridin]-1-yl]-5-(trifluoromethyl)benzonitrile]
< 10 | CCOc1ncccc1-c1ccc2c(n1)N(C(=O)CCNC)CC21CCN(c2ccc(C(F)(F)F)cc2C#N)CC1 [1-50, 2-[6′-(2-ethoxypyridin-3-yl)-1′-[3-(methylamino)propanoyl]-1′,2′-dihydrospiro[piperidine-4,3′-pyrrolo[2,3-b]pyridin]-1-yl]-5-(trifluoromethyl)benzonitrile]
< 10 | CCOc1ncccc1-c1ccc2c(n1)N(C[C@H](N)CO)CC21CCN(c2ccc(C(F)(F)F)cc2C#N)CC1 [1-51, 2-{1′-[(2S)-2-amino-3-hydroxypropyl]-6′-(2-ethoxypyridin-3-yl)-1′,2′-dihydrospiro[piperidine-4,3′-pyrrolo[2,3-b]pyridin]-1-yl}-5-(trifluoromethyl)benzonitrile]
< 10 | CCOc1ncccc1-c1ccc2c(n1)N([C@@H]1CCNC1)CC21CCN(c2ccc(C(F)(F)F)cc2C#N)CC1 [1-52, 2-[6′-(2-ethoxypyridin-3-yl)-1′-[(3R)-pyrrolidin-3-yl]-1′,2′-dihydrospiro[piperidine-4,3′-pyrrolo[2,3-b]pyridin]-1-yl]-5-(trifluoromethyl)benzonitrile]

Further lines, the compound ahead of its results:

Compound | Ki [nM]
CCOc1ncccc1-c1ccc2c(c1)N(C(=O)NC[C@@H](C)N)CC21CCN(c2ccc(C(F)(F)F)cc2C#N)CC1 [1-30, N-[(2R)-2-aminopropyl]-1′-[2-cyano-4-(trifluoromethyl)phenyl]-6-(2-ethoxypyridin-3-yl)-1,2-dihydrospiro[indole-3,4′-piperidine]-1-carboxamide] | 10 to 100
CCOc1ncccc1-c1ccc2c(c1)N(C(=O)N[C@@H]1CCNC1)CC21CCN(c2ccc(C(F)(F)F)cc2C#N)CC1 [1-32, 1′-[2-cyano-4-(trifluoromethyl)phenyl]-6-(2-ethoxypyridin-3-yl)-N-[(3R)-pyrrolidin-3-yl]-1,2-dihydrospiro[indole-3,4′-piperidine]-1-carboxamide] | 10 to 100
CCOc1ncccc1-c1ccc2c(c1)N(C(=O)N[C@H]1CCNC1)CC21CCN(c2ccc(C(F)(F)F)cc2C#N)CC1 [1-33, 1′-[2-cyano-4-(trifluoromethyl)phenyl]-6-(2-ethoxypyridin-3-yl)-N-[(3S)-pyrrolidin-3-yl]-1,2-dihydrospiro[indole-3,4′-piperidine]-1-carboxamide] | 10 to 100
CCOc1ncccc1-c1ccc2c(c1)N(C(=O)CCN)CC21CCN(c2ccc(Cl)cc2C#N)CC1 [1-34, 2-[1-(3-aminopropanoyl)-6-(2-ethoxypyridin-3-yl)-1,2-dihydrospiro[indole-3,4′-piperidin]-1′-yl]-5-chlorobenzonitrile] | 10 to 100
N#Cc1cc(C(F)(F)F)ccc1N1CCC2(CC1)CN(C(=O)CCN)c1cc(-c3ccccc3CO)ccc12 [1-35, 2-[1-(3-aminopropanoyl)-6-[2-(hydroxymethyl)phenyl]-1,2-dihydrospiro[indole-3,4′-piperidin]-1′-yl]-5-(trifluoromethyl)benzonitrile] | 10 to 100
CCOc1ncccc1-c1ccc2c(c1)N(C(=O)CCN)CC21CCN(c2cc(OC)cc(C(F)(F)F)n2)CC1 [1-36, 3-amino-1-[6-(2-ethoxypyridin-3-yl)-1′-[4-methoxy-6-(trifluoromethyl)pyridin-2-yl]-1,2-dihydrospiro[indole-3,4′-piperidin]-1-yl]propan-1-one] | 1000 to 10000
CCOc1ncccc1-c1ccc2c(c1)N(S(=O)(=O)CCN)CC21CCN(c2ccc(C(F)(F)F)cc2C#N)CC1 [1-37, 2-[1-(2-aminoethanesulfonyl)-6-(2-ethoxypyridin-3-yl)-1,2-dihydrospiro[indole-3,4′-piperidin]-1′-yl]-5-(trifluoromethyl)benzonitrile] | 10 to 100
CCOc1ncccc1-c1ccc2c(c1)N(C[C@H]1CCN1)CC21CCN(c2ccc(C(F)(F)F)cc2C#N)CC1 [1-38, 2-(1-{[(2R)-azetidin-2-yl]methyl}-6-(2-ethoxypyridin-3-yl)-1,2-dihydrospiro[indole-3,4′-piperidin]-1′-yl)-5-(trifluoromethyl)benzonitrile] | 10 to 100
CCOc1ncccc1-c1ccc2c(c1)N(C[C@@H]1CCN1)CC21CCN(c2ccc(C(F)(F)F)cc2C#N)CC1 [1-39, 2-(1-{[(2S)-azetidin-2-yl]methyl}-6-(2-ethoxypyridin-3-yl)-1,2-dihydrospiro[indole-3,4′-piperidin]-1′-yl)-5-(trifluoromethyl)benzonitrile] | 10 to 100
CCOc1ncccc1-c1ccc2c(c1)N([C@H](C)CN)CC21CCN(c2ccc(C(F)(F)F)cc2C#N)CC1 [1-40, 2-{1-[(2R)-1-aminopropan-2-yl]-6-(2-ethoxypyridin-3-yl)-1,2-dihydrospiro[indole-3,4′-piperidin]-1′-yl}-5-(trifluoromethyl)benzonitrile] | < 10
CCOc1ncccc1-c1ccc2c(c1)N([C@@H](C)CN)CC21CCN(c2ccc(C(F)(F)F)cc2C#N)CC1 [1-41, 2-{1-[(2S)-1-aminopropan-2-yl]-6-(2-ethoxypyridin-3-yl)-1,2-dihydrospiro[indole-3,4′-piperidin]-1′-yl}-5-(trifluoromethyl)benzonitrile] | 10 to 100
C[C@@H](N)CN1CC2(CCN(c3ccc(C(F)(F)F)cc3C#N)CC2)c2ccc(-c3ccccc3CO)cc21 [1-42, 2-{1-[(2R)-2-aminopropyl]-6-[2-(hydroxymethyl)phenyl]-1,2-dihydrospiro[indole-3,4′-piperidin]-1′-yl}-5-(trifluoromethyl)benzonitrile] | 10 to 100
CCOc1ncccc1-c1ccc2c(c1)N(C(=O)CCN)CC21CCN(c2ccc(OC)nc2C#N)CC1 [1-43, 3-[1-(3-aminopropanoyl)-6-(2-ethoxypyridin-3-yl)-1,2-dihydrospiro[indole-3,4′-piperidin]-1′-yl]-6-methoxypyridine-2-carbonitrile] | 10 to 100
CCOc1ccc(N2CCC3(CC2)CN(C(=O)CCN)c2cc(-c4cccnc4OCC)ccc23)c(C#N)n1 [1-44, 3-[1-(3-aminopropanoyl)-6-(2-ethoxypyridin-3-yl)-1,2-dihydrospiro[indole-3,4′-piperidin]-1′-yl]-6-ethoxypyridine-2-carbonitrile] | 10 to 100
CCOc1ncccc1-c1ccc2c(c1)N(C[C@@H](C)N)CC21CCN(c2ccc(Cl)cc2C(F)F)CC1 [1-45, (2R)-1-{1′-[4-chloro-2-(difluoromethyl)phenyl]-6-(2-ethoxypyridin-3-yl)-1,2-dihydrospiro[indole-3,4′-piperidin]-1-yl}propan-2-amine] | 10 to 100
